Results: paper PMC12663261 (Nature Communications, 2025)

Assays:
[1] = biological target: T1, hcis-PT (DHDDS / NgBR complex) (Homo sapiens, UniProt Q86SQ9+Q96E22); assay: HDX-MS, ligand-bound versus apo; format: binding; conditions: 6-molar excess ligand, 5 mM MgCl2, pD 7.5, 4 °C; active site
T1 sequence (Q86SQ9 1-333): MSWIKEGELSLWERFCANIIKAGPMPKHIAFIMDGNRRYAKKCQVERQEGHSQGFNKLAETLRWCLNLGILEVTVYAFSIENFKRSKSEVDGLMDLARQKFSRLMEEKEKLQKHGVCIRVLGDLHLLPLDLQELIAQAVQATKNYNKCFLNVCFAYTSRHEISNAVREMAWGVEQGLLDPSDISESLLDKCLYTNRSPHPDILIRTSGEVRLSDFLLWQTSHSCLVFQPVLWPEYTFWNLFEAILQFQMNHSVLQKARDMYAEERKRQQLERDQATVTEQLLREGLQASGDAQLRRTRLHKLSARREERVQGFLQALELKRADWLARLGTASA
T1 sequence (Q96E22 73-293): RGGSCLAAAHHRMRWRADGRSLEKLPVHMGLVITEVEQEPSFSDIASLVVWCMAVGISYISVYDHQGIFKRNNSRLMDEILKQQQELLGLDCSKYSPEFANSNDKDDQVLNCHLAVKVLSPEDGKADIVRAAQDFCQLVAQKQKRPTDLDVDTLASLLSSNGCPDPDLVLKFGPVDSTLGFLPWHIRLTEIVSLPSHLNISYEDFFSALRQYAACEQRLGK

[2] = biological target: T1, hcis-PT (DHDDS / NgBR complex); assay: fluorescence increase upon chain elongation; format: biochemical; conditions: 5 uM with 100 uM IPP, 0.2 uM enzyme, 0.5 mM MgCl2, pH 7.5

Row | SMILES | HDX-MS, ligand-bound versus apo [1] | fluorescence increase upon chain elongation (Ex 352 nm, Em 425 nm) [2]
1 | CC(C)=CCC/C(C)=C/CC/C(C)=C/CC/C(C)=C/COP(=O)(O)OP(=O)(O)O [GGPP] | binding of either FPP or GGPP resulted in decreased HDX throughout the active site | –
2 | CNc1ccccc1C(=O)OC/C(C)=C/CC/C(C)=C/COP(=O)(O)OP(=O)(O)O [MANT-O-GPP, (2E,6E)-8-O-(N-methyl-2-aminobenzoyl)-3,7-dimethyl-2,6-octandien-1-pyrophosphate] | – | MANT-O-GPP exhibits an increase in fluorescence upon chain elongation by hcis-PT
3 | CC(C)=CCC/C(C)=C/CC/C(C)=C/COP(=O)(O)OP(=O)(O)O [FPP] | binding of either FPP or GGPP resulted in decreased HDX throughout the active site | –
